{
  "source": "paper PMC9150124",
  "about": "“Design of a Potent, Selective, and Brain-Penetrant Inhibitor of Wnt-Deactivating Enzyme Notum by Optimization of a Crystallographic Fragment Hit” (Journal of Medicinal Chemistry, 2022)",
  "test_in_all_cases": "SelectScreen kinase profiling, SSBK LanthaScreen Binding SP Technology",
  "key": {"[1]": {"biological_target": "kinase named in conditions (Homo sapiens, UniProt P10721, T670I/V559D)", "conditions": "KIT V559D T670I, 10 μM", "procedure": "(§1) Kinase selectivity screening was performed by Thermo Fisher Scientific (Paisley, U.K.) in their SelectScreen Biochemical Kinase Profiling Service. Assay information and data are presented in the Supporting Information.\n(§2) Kinase selectivity screening was performed by ThermoFisher Scientific (Paisley, U.K.) in their SelectScreenTM\n(§3) Biochemical Kinase Profiling service .\n(§4) Illustration reproduced courtesy of Cell Signaling technology, Inc.\n(§5) (B) Illustration of phylogenetic tree of kinases screened."}, "[2]": {"biological_target": "kinase named in conditions (Homo sapiens, UniProt P22607, K650M)", "conditions": "FGFR3 K650M, 10 μM", "procedure": "as §1, §2, §3, §4, §5"}, "[3]": {"biological_target": "kinase named in conditions (Homo sapiens, UniProt Q9Y2H1)", "conditions": "STK38L (NDR2), 10 μM", "procedure": "as §1, §2, §3, §4, §5"}, "[4]": {"biological_target": "kinase named in conditions (Homo sapiens, UniProt P42680)", "conditions": "TEC, 10 μM", "procedure": "as §1, §2, §3, §4, §5"}, "[5]": {"biological_target": "kinase named in conditions (Homo sapiens, UniProt Q9Y572)", "conditions": "RIPK3, 10 μM", "procedure": "as §1, §2, §3, §4, §5"}, "[6]": {"biological_target": "kinase named in conditions (Homo sapiens, UniProt Q99558)", "conditions": "MAP3K14 (NIK), 10 μM", "procedure": "as §1, §2, §3, §4, §5"}, "[7]": {"biological_target": "kinase named in conditions (Homo sapiens, UniProt P10721, D816H)", "conditions": "KIT D816H, 10 μM", "procedure": "as §1, §2, §3, §4, §5"}, "[8]": {"biological_target": "kinase named in conditions (Homo sapiens, UniProt Q92630)", "conditions": "DYRK2, 10 μM", "procedure": "as §1, §2, §3, §4, §5"}, "[9]": {"biological_target": "kinase named in conditions (Homo sapiens, UniProt Q15835)", "conditions": "GRK1, 10 μM", "procedure": "as §1, §2, §3, §4, §5"}, "[10]": {"biological_target": "kinase named in conditions (Homo sapiens, UniProt Q99759)", "conditions": "MAP3K3 (MEKK3), 10 μM", "procedure": "as §1, §2, §3, §4, §5"}, "[11]": {"biological_target": "kinase named in conditions (Homo sapiens, UniProt Q8IVH8)", "conditions": "MAP4K3 (GLK), 10 μM", "procedure": "as §1, §2, §3, §4, §5"}, "[12]": {"biological_target": "kinase named in conditions (Homo sapiens, UniProt P19525)", "conditions": "EIF2AK2 (PKR), 10 μM", "procedure": "as §1, §2, §3, §4, §5"}, "[13]": {"biological_target": "kinase named in conditions (Homo sapiens, UniProt Q99683)", "conditions": "MAP3K5 (ASK1), 10 μM", "procedure": "as §1, §2, §3, §4, §5"}, "[14]": {"biological_target": "kinase named in conditions (Homo sapiens, UniProt Q00536)", "conditions": "CDK16 (PCTK1)/cyclin Y, 10 μM", "procedure": "as §1, §2, §3, §4, §5"}, "[15]": {"biological_target": "kinase named in conditions (Homo sapiens, UniProt O00311)", "conditions": "CDC7/DBF4, 10 μM", "procedure": "as §1, §2, §3, §4, §5"}, "[16]": {"biological_target": "kinase named in conditions (Homo sapiens, UniProt Q15569)", "conditions": "TESK1, 10 μM", "procedure": "as §1, §2, §3, §4, §5"}, "[17]": {"biological_target": "kinase named in conditions (Homo sapiens, UniProt Q32MK0)", "conditions": "MLCK (MLCK2), 10 μM", "procedure": "as §1, §2, §3, §4, §5"}, "[18]": {"biological_target": "kinase named in conditions (Homo sapiens, UniProt O75716)", "conditions": "STK16 (PKL12), 10 μM", "procedure": "as §1, §2, §3, §4, §5"}, "[19]": {"biological_target": "kinase named in conditions (Homo sapiens, UniProt O94768)", "conditions": "STK17B (DRAK2), 10 μM", "procedure": "as §1, §2, §3, §4, §5"}, "[20]": {"biological_target": "kinase named in conditions (Homo sapiens, UniProt P22694)", "conditions": "PRKACB (PRKAC beta), 10 μM", "procedure": "as §1, §2, §3, §4, §5"}, "[21]": {"biological_target": "kinase named in conditions (Homo sapiens, UniProt Q02750, S218D/S222D)", "conditions": "MAP2K1 (MEK1) S218D S222D, 10 μM", "procedure": "as §1, §2, §3, §4, §5"}, "[22]": {"biological_target": "kinase named in conditions (Homo sapiens, UniProt P45984)", "conditions": "MAPK9 (JNK2), 10 μM", "procedure": "as §1, §2, §3, §4, §5"}, "[23]": {"biological_target": "kinase named in conditions (Homo sapiens, UniProt Q15746)", "conditions": "MYLK (MLCK), 10 μM", "procedure": "as §1, §2, §3, §4, §5"}, "[24]": {"biological_target": "kinase named in conditions (Homo sapiens, UniProt P10721, D816V)", "conditions": "KIT D816V, 10 μM", "procedure": "as §1, §2, §3, §4, §5"}, "[25]": {"biological_target": "kinase named in conditions (Homo sapiens, UniProt P15056, V600E)", "conditions": "BRAF V599E, 10 μM", "procedure": "as §1, §2, §3, §4, §5"}, "[26]": {"biological_target": "kinase named in conditions (Homo sapiens, UniProt Q8IWQ3)", "conditions": "BRSK2, 10 μM", "procedure": "as §1, §2, §3, §4, §5"}, "[27]": {"biological_target": "kinase named in conditions (Homo sapiens, UniProt Q86Y07)", "conditions": "VRK2, 10 μM", "procedure": "as §1, §2, §3, §4, §5"}, "[28]": {"biological_target": "kinase named in conditions (Homo sapiens, UniProt Q8N5S9)", "conditions": "CAMKK1 (CAMKKA), 10 μM", "procedure": "as §1, §2, §3, §4, §5"}, "[29]": {"biological_target": "kinase named in conditions (Homo sapiens, UniProt P04049, Y340D/Y341D)", "conditions": "RAF1 (cRAF) Y340D Y341D, 10 μM", "procedure": "as §1, §2, §3, §4, §5"}, "[30]": {"biological_target": "kinase named in conditions (Homo sapiens, UniProt P00519, H396P)", "conditions": "ABL1 H396P, 10 μM", "procedure": "as §1, §2, §3, §4, §5"}, "[31]": {"biological_target": "kinase named in conditions (Homo sapiens, UniProt P45983)", "conditions": "MAPK8 (JNK1), 10 μM", "procedure": "as §1, §2, §3, §4, §5"}, "[32]": {"biological_target": "kinase named in conditions (Homo sapiens, UniProt Q15208)", "conditions": "STK38 (NDR), 10 μM", "procedure": "as §1, §2, §3, §4, §5"}, "[33]": {"biological_target": "kinase named in conditions (Homo sapiens, UniProt P07949, V804M)", "conditions": "RET V804M, 10 μM", "procedure": "as §1, §2, §3, §4, §5"}},
  "data": [
    {"smiles": "FC(F)(F)c1c(Cl)ccc(-n2ccnn2)c1Cl", "note": "[8l, 1-(2,4-Dichloro-3-(trifluoromethyl)phenyl)-1H-1,2,3-triazole]", "values": [
      {"measurement": "inhibition at 10 µM", "setting": "[1]", "result": -3, "unit": "%"},
      {"measurement": "inhibition at 10 µM", "setting": "[2]", "result": 2, "unit": "%"},
      {"measurement": "inhibition at 10 µM", "setting": "[3]", "result": 15, "unit": "%"},
      {"measurement": "inhibition at 10 µM", "setting": "[4]", "result": 0, "unit": "%"},
      {"measurement": "inhibition at 10 µM", "setting": "[5]", "result": 10, "unit": "%"},
      {"measurement": "inhibition at 10 µM", "setting": "[6]", "result": 16, "unit": "%"},
      {"measurement": "inhibition at 10 µM", "setting": "[7]", "result": -2, "unit": "%"},
      {"measurement": "inhibition at 10 µM", "setting": "[8]", "result": -1, "unit": "%"},
      {"measurement": "inhibition at 10 µM", "setting": "[9]", "result": 3, "unit": "%"},
      {"measurement": "inhibition at 10 µM", "setting": "[10]", "result": -14, "unit": "%"},
      {"measurement": "inhibition at 10 µM", "setting": "[11]", "result": 6, "unit": "%"},
      {"measurement": "inhibition at 10 µM", "setting": "[12]", "result": 6, "unit": "%"},
      {"measurement": "inhibition at 10 µM", "setting": "[13]", "result": 17, "unit": "%"},
      {"measurement": "inhibition at 10 µM", "setting": "[14]", "result": 8, "unit": "%"},
      {"measurement": "inhibition at 10 µM", "setting": "[15]", "result": -15, "unit": "%"},
      {"measurement": "inhibition at 10 µM", "setting": "[16]", "result": 7, "unit": "%"},
      {"measurement": "inhibition at 10 µM", "setting": "[17]", "result": -3, "unit": "%"},
      {"measurement": "inhibition at 10 µM", "setting": "[18]", "result": 17, "unit": "%"},
      {"measurement": "inhibition at 10 µM", "setting": "[19]", "result": 14, "unit": "%"},
      {"measurement": "inhibition at 10 µM", "setting": "[20]", "result": 1, "unit": "%"},
      {"measurement": "inhibition at 10 µM", "setting": "[21]", "result": 2, "unit": "%"},
      {"measurement": "inhibition at 10 µM", "setting": "[22]", "result": -5, "unit": "%"},
      {"measurement": "inhibition at 10 µM", "setting": "[23]", "result": 3, "unit": "%"},
      {"measurement": "inhibition at 10 µM", "setting": "[24]", "result": 26, "unit": "%"},
      {"measurement": "inhibition at 10 µM", "setting": "[25]", "result": 0, "unit": "%"},
      {"measurement": "inhibition at 10 µM", "setting": "[26]", "result": 4, "unit": "%"},
      {"measurement": "inhibition at 10 µM", "setting": "[27]", "result": -11, "unit": "%"},
      {"measurement": "inhibition at 10 µM", "setting": "[28]", "result": -3, "unit": "%"},
      {"measurement": "inhibition at 10 µM", "setting": "[29]", "result": -3, "unit": "%"},
      {"measurement": "inhibition at 10 µM", "setting": "[30]", "result": 7, "unit": "%"},
      {"measurement": "inhibition at 10 µM", "setting": "[31]", "result": -9, "unit": "%"},
      {"measurement": "inhibition at 10 µM", "setting": "[32]", "result": -8, "unit": "%"},
      {"measurement": "inhibition at 10 µM", "setting": "[33]", "result": 8, "unit": "%"}
    ]}
  ]
}
